Measured values taken from US6825209B2, “Compounds having unique CB1 receptor binding selectivity and methods for their production and use” (Research Triangle Institute, priority 2002, dated 2004).
pEC50, pKi: −log10 of the molar value. Like-named read-outs stand apart in the source and are kept apart here.

Experiments:
[1] = target: T1, CB1 receptor (Rattus norvegicus, UniProt P20272); assay: Radioligand displacement in whole rat brain (CB1) membrane preparations; format: binding; details: Tables 1 and 2
T1 construct: Whole rat brains or dissected regions from live CD rats; tissue Charles River or Pel-Freez Biologicals; host or cells: whole rat brain (CD rats), P2 membrane
T1 sequence (P20272 whole entry): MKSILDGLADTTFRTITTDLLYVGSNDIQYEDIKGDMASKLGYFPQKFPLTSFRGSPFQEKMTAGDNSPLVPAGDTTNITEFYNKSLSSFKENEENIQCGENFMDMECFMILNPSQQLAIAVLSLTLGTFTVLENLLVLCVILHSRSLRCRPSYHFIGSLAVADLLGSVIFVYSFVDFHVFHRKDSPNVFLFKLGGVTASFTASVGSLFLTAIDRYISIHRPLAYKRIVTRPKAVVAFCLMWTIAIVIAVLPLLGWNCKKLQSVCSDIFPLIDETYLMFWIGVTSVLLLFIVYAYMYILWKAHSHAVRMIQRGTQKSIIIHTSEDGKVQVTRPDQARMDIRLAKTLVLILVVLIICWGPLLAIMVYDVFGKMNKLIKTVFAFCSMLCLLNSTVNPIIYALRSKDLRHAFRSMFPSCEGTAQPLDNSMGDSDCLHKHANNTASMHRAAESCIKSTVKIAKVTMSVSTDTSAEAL
Procedure, shortened: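 Washed P2 membranes from whole rat brain (ca. 0.2 mg/mL) in 50 mM Tris.HCl, 1 mM EDTA, 3 mM MgCl2, pH 7.4 were incubated with radioligand and compound for 1 h at 30 °C, then filtered. IC50 values came from one- or two-site nonlinear fits and were converted to Ki by Cheng-Prusoff. Duplicates were run across 3–6 experiments.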

[2] = target: T2, human CB1 receptor (Homo sapiens, UniProt P21554); assay: Radioligand displacement in human CB1 receptor-transfected cells (HEK-293); format: binding; details: for pKi: Ki
T2 construct: expressed in transfected cells; host or cells: HEK-293
T2 sequence (P21554 whole entry): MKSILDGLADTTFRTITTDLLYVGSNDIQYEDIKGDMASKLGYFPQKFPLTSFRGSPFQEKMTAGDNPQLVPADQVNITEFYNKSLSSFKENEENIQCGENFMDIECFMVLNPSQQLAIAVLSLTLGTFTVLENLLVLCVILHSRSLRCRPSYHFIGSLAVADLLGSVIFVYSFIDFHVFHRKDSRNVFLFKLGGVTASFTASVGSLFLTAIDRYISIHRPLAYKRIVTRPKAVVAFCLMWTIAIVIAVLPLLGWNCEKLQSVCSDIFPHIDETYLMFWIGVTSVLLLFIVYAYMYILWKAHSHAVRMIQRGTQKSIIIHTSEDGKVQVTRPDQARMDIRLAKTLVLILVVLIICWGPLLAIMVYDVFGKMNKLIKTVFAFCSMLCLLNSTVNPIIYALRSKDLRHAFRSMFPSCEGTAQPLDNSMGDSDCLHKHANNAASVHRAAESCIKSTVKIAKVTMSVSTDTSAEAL
Procedure, shortened: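 Radioligand displacement was run on HEK-293 cells expressing human CB1, with incubation and separation as for rat brain membranes. IC50 values came from one- or two-site nonlinear regression and were converted to Ki by Cheng-Prusoff.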

[3] = target: T3, human CB2 receptor (Homo sapiens, UniProt P34972); assay: Displacement of 3H-CP55,940 in human CB2 receptor-transfected cells (CHO-K1); format: binding; details: radioligand 3H-CP55940, Tables 6 and 7
T3 construct: expressed in transfected cells; host or cells: CHO-K1
T3 sequence (P34972 whole entry): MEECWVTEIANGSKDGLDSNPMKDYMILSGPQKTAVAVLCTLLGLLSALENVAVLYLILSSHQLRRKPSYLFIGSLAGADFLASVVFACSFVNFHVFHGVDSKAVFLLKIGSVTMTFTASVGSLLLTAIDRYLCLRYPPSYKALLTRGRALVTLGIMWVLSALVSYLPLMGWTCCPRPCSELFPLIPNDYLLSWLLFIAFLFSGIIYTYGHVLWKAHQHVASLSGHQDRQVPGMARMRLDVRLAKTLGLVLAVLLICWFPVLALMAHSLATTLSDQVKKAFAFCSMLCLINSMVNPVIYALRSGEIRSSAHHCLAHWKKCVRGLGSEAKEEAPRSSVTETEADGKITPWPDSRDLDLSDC
Method: Human CB2 receptor affinity. The relative selectivity of the analogs for CB1 versus CB2 receptors varied modestly regardless of the structural modifications examined to date.
Methods—binding assay in transfected cell lines. The methods used for performing binding assays in transfected cells expressing human CB1 or CB2 receptors are those used above. The CB1 receptor involved a HEK-293 expression system whereas the CB2 receptor was expressed in CHO-K1 cells. […] The incubations and separations were then performed as described above for rat brain membrane preparations.
Data analysis. Saturation and displacement data were analyzed by unweighted nonlinear regression of receptor binding data. For displacement studies, curve-fitting and IC50 calculation were done with GraphPad Prism (GraphPad Software, Inc., San Diego, Calif.), which fits the data to one and two-site models and compares the two fits statistically. A similar approach was used for the analysis of isotherm data for calculation of Kd's. A two-site fit was accepted only if it was statistically significant (p<0.05) and the following results were not observed:
IC50 values were then converted to Ki values by reported methods (Cheng and Prusoff, 1973). The statistical evaluation of curve-fitting data allowed for a non-arbitrary conclusion based on the displacement data.

[4] = target: T4, G-protein-linked cannabinoid receptors (Rattus norvegicus, UniProt P20272); assay: GTP-γ-[35S] binding in whole rat brain; format: biochemical; details: for pEC50: EC50, GTP-γ-[35S] in Whole Rat Brain, whole rat brain membranes, inverse agonist/antagonist activity; for Emax: read-out: Emax, GTP-γ-[35S] in Whole Rat Brain
T4 construct: tissue Charles River or Pel-Freez Biologicals; host or cells: whole rat brain crude membrane homogenate
T4 sequence (P20272 whole entry): as the sequence (P20272 whole entry) above
Source text: Cannabinoid receptor-mediated alteration in GTP-γ-[^35S] binding.
Introduction. The purpose of this assay was to characterize the functional activity of lead compounds identified by the radioligand competition binding assays described above. Data from the GTP-γ-[^35S] binding assay was used to determine if a compound was an agonist, antagonist or inverse agonist at G-protein-linked cannabinoid receptors. Agonist binding to a G-protein-linked receptor results in an increased affinity of the G-protein α-subunit for GTP relative to GDP. Eventually, an active αGTP complex forms to complete the stimulus-effector coupling. The α-subunit has intrinsic GTPase activity which generates a free α-subunit which can recombine with the β- and γ-subunits readying the G-protein for another signal transduction cycle. In the current assay, GTP-γ-[^35S] cannot be hydrolyzed by the α-subunit. Thus, the amount of bound GTP-γ-[^35S] is a marker for G-protein activation. In this assay, an agonist increases basal GTP-γ-[^35S] binding, an inverse agonist decreases basal binding and basal binding would be unaffected by an antagonist.
Experimental Design. The specific binding of GTP-γ-[^35S], in the absence of test compound, was termed “basal” activity. Test compounds were characterized as agonist, antagonist, or inverse agonist based on their effect on basal activity. […] The concentrations spanned two orders of magnitude because affinity may not be related to efficacy. […] Effects of the test compounds are reported as the percent change from basal. More thorough dose-response analysis may be run to determine, for example, if a compound is a full or partial agonist.
Methods. […] In a final volume of 0.5 mL, each assay tube contained: 0.02 mg crude membrane homogenate (0.1 mL), 200 μM GDP (0.05 mL; to reduce basal G-protein activity), 0.1 nM GTP-γ-[^35S] (0.05 mL) and several concentrations of test compound (0.05 mL) or an equivalent volume of vehicle (used for determination of total binding). Nonspecific binding was determined in the presence of 100 μM unlabeled GTP-γ-S (0.05 mL). Duplicate samples were incubated for 1 h at 30° C. Since this assay is amenable for use with high throughput screening methods, the binding assays were run using a 96-well plate format. Specific binding was calculated as total binding-nonspecific binding.

[5] = test system: CB1 and CB2 receptors; details: literature, cited from earlier work
[6] = Ki, displacement of 3H-WIN55212-2, whole rat brain membranes, radioligand 3H-WIN55212-2
[7] = whole rat brain membranes, radioligand 3H-CP55940
[8] = whole rat brain membranes, radioligand 3H-SR141716A
[9] = whole rat brain membranes, radioligand 3H-WIN55212-2

SMILES	pKi [1, 6]	Max. Disp. %, 3H-CP55940 [1, 7]	Max. Disp. %, 3H-SR141716A [1, 8]	Max. Disp. %, 3H-WIN55212-2 [1, 9]	Max. Disp. %, 3H-CP55940 [2]	Max. Disp. %, 3H-SR141716A [2]	Max. Disp. %, 3H-WIN55212-2 [2]	pKi ([2]; displacement of 3H-CP55940)	pKi ([2]; displacement of 3H-SR141716A)	pKi ([2]; displacement of 3H-WIN55212-2)	Max. Disp. %, 3H-CP55940 ([3]; human CB2 transfected cells)	pEC50 [4]	Emax [4]	also measured
CCCCCNC(=O)c1nn(-c2ccc(Cl)cc2Cl)c(-c2ccc(Cl)cc2)c1C [MF9725-67-17]	7.90	91.4%	100%	94.4%	87.1%	89.9%	89.9%	7.84	8.20	7.73	75.9%	5.28	-7.4%	pKi ([1]; read-out: Ki, displacement of 3H-CP55940, whole rat brain membranes, radioligand 3H-CP55940): 7.94; pKi ([1]; read-out: Ki, displacement of 3H-SR141716A, whole rat brain membranes, radioligand 3H-SR141716A): 8.17; pKi ([3]; read-out: Ki, displacement of 3H-CP55940, human CB2 transfected cells): 5.95
CCCCCCC(C)(C)c1ccc([C@@H]2C[C@H](O)CC[C@H]2CCCO)c(O)c1 [CP55,940]														affinity at CB1 and CB2 receptor sites [5]: approximately equal affinity
Cc1c(C(=O)NN2CCCCC2)nn(-c2ccc(Cl)cc2Cl)c1-c1ccc(Cl)cc1 [SR141716A]														Ki for CB1 lower than for CB2 ([5]; selectivity for the CB1 over the CB2 receptor): over 50 fold
CCCCCCCCCNC(=O)c1nn(-c2ccc(Cl)cc2Cl)c(-c2ccc(Cl)cc2)c1C [MF10110-10-21]	7.17	79.5%	85.8%	68.6%	68.8%	86.9%	28.3%	6.51	7.25	5.45	53.8%	3.53	-20.1%	pKi ([1]; Ki, displacement of 3H-CP55940, whole rat brain membranes, radioligand 3H-CP55940): 6.48; pKi ([1]; Ki, displacement of 3H-SR141716A, whole rat brain membranes, radioligand 3H-SR141716A): 7.05; pKi ([3]; Ki, displacement of 3H-CP55940, human CB2 transfected cells): 4.64
